# Test results: publication PMC5038266 (Antimicrobial Agents and Chemotherapy, 2016)
# “Also recorded” adds a separate entry of the source. Like-named read-outs stand apart in the source and are kept apart here.
# Key:
# clinical [1] = conditions: human, in vivo, po; for AUC: Delamanid AUCτ
# [2] = Study 2: multiple-dose drug-drug interaction pharmacokinetics, delamanid with tenofovir or Kaletra (lopinavir/ritonavir); conditions: for Equivalence outcome for steady-state exposure of coadministered drug: coadministered with delamanid
# [3] = Study 1: multiple-dose drug-drug interaction pharmacokinetics, delamanid with ethambutol plus Rifater; conditions: for AUC / Cmax: human, plasma, po, ethambutol 1100 mg + Rifater once daily, mean ± SD; for AUC: AUCτ of coadministered drug; for Cmax: Cmax of coadministered drug
# clinical [4] = conditions: human, in vivo, po; for Tmax: Delamanid Tmax
# [5] = Study 3 safety assessments (adverse events); assay type: in vivo, human (healthy subjects); conditions: efavirenz alone, delamanid alone, and delamanid plus efavirenz
# [6] = Study 3: multiple-dose drug-drug interaction pharmacokinetics, delamanid with efavirenz; conditions: for Cmax / AUC: human, po; for AUC: Delamanid AUCτ
# [7] = human, in vivo
# [8] = in vivo
# [9] = Study 1; multiple once-daily oral doses of 200 mg delamanid alone and in combination with ethambutol and rifampin/isoniazid/pyrazinamide
# [10] = Study 2 safety assessments (adverse events); assay type: in vivo, human (healthy subjects); conditions: combinations of delamanid with either tenofovir or lopinavir and ritonavir
# CYP enzymes = test system: CYP enzymes; set-up: method as in PMID 17132069; conditions: cited from earlier work
# MDR-TB = conditions: cited from earlier work
# [11] = Cmax of coadministered drug, with DLM
# [12] = with DLM, day 15, with delamanid 200 mg once daily
# [13] = without DLM, day 15, without delamanid
# [14] = delamanid plus optimized background regimen for ≤2 months
# [15] = ethambutol-Rifater plus delamanid versus ethambutol-Rifater alone
compound,measurement,setting,value
CC(C)c1nc(CN(C)C(=O)N[C@H](C(=O)N[C@@H](Cc2ccccc2)C[C@H](O)[C@H](Cc2ccccc2)NC(=O)OCc2cncs2)C(C)C)cs1 [Ritonavir],Cmax,clinical [1]; [11],1270 ng/mL
same,Effect of delamanid on exposure of coadministered drug,[2],not affected
same,Equivalence outcome for steady-state exposure of coadministered drug,[2],suggested
NC(=O)c1cnccn1 [Pyrazinamide],AUC,[3]; [12],533000 ± 141000 ng·h/mL
same,AUC,[3]; [13],488000 ± 90300 ng·h/mL
same,Cmax,[3]; [12],51400 ± 9060 ng/mL
same,Cmax,"clinical [4]; Cmax of coadministered drug, without DLM",49700 ng/mL
C[C@]1(COc2ccc(N3CCC(Oc4ccc(OC(F)(F)F)cc4)CC3)cc2)CN=C(N)O1 [DM-6705],Lower metabolite AUCτ when delamanid coadministered with ethambutol-Rifater,"[3]; based on the AUC, versus delamanid alone",30 to 50%
same,Higher exposure on coadministration of lopinavir/ritonavir (Kaletra) with delamanid,"[2]; delamanid and metabolites, unpublished results for metabolites",approximately 25%
O=C1Nc2ccc(Cl)cc2[C@@](C#CC2CC2)(C(F)(F)F)O1 [Efavirenz],Tolerability,[5],well tolerated
same,Effect of delamanid on efavirenz plasma concentrations/exposure,[6],not affected; also recorded: did not affect
same,"AUCτ of coadministered drug, without DLM","[6]; efavirenz 600 mg once daily in the evening for 10 days, without delamanid, mean ± SD",84.7 ± 37.8 (14) h·µg/ml
same,Cmax,"[6]; plasma, 600 mg, Cmax of coadministered drug, with DLM, efavirenz 600 mg once daily in the evening for 10 days, with delamanid 100 mg twice daily, mean ± SD",5810 ± 3030 ng/mL
same,Cmax,"[6]; plasma, 600 mg, Cmax of coadministered drug, without DLM, efavirenz 600 mg once daily in the evening for 10 days, without delamanid, mean ± SD",5950 ± 1670 ng/mL
C[C@]1(COc2ccc(N3CCC(Oc4ccc(OC(F)(F)F)cc4)CC3)cc2)Cn2cc([N+](=O)[O-])nc2O1 [Delamanid],Delamanid concentrations reached steady state by day,[7],≤ 15 days
same,Lower delamanid AUCτ on coadministration with ethambutol plus Rifater,[7],47%
same,Lower delamanid Cmax on coadministration with ethambutol plus Rifater,[7],42%
same,Effect of CYP2C9 genotype on delamanid PK,[3]; unpublished results,no effect
same,Delamanid concentrations reached steady-state by day,[8]; human,≤ 14 days
same,Delamanid AUCτ,"[8]; human, po, 100 mg","5,830 ± 1,660 ng·h/ml"
same,Delamanid Cmax,"[8]; human, po, 100 mg",734 ± 196 ng/mL
same,Effect of tenofovir coadministration on delamanid PK/systemic exposure,[8],did not affect
same,Equivalence outcome for steady-state exposure of delamanid,[8],documented
same,Tolerability,[9],well tolerated
same,Tmax,clinical [1]; 100 mg,4 h
same,AUC,clinical [1]; 100 mg,4510 ng·h/mL
same,AUC,"clinical [1]; 100 mg, Study 2, DLM alone, delamanid 100 mg twice daily, day 14, plasma, mean ± SD",4700 ng·h/mL
same,Cmax,"clinical [1]; 100 mg, Delamanid Cmax",518 ± 114 ng/mL
same,Cmax,"clinical [1]; 100 mg, Delamanid Cmax, Study 2, DLM alone, delamanid 100 mg twice daily, day 14, plasma, mean ± SD",617 ± 135 ng/mL
same,AUC,"clinical [4]; 200 mg, Delamanid AUCτ",3110 ng·h/mL
same,AUC,"clinical [4]; 200 mg, Delamanid AUCτ, Study 1, DLM + PLC, delamanid 200 mg once daily, day 15, plasma, mean ± SD",5950 ng·h/mL
same,Cmax,"clinical [4]; 200 mg, Delamanid Cmax",270 ± 38.9 ng/mL
same,Cmax,"clinical [4]; 200 mg, Delamanid Cmax, Study 1, DLM + PLC, delamanid 200 mg once daily, day 15, plasma, mean ± SD",476 ± 119 ng/mL
same,Tmax,clinical [4]; 200 mg,4.06 h
same,Tmax,"clinical [4]; 200 mg, Study 1, DLM + PLC, delamanid 200 mg once daily, day 15, plasma, median (min-max)",4 h
same,Tolerability,[10],well tolerated
same,Equivalence outcome for delamanid exposure,[2]; after lopinavir/ritonavir coadministration,Equivalence was suggested
same,Tolerability,[5],well tolerated
same,Effect of efavirenz coadministration on delamanid steady-state exposure/PK,[6],did not significantly affect
same,Delamanid Tmax,"[6]; DLM alone, delamanid 100 mg twice daily, day 7 evening dose, median (min-max)",4.00 (2.00–6.00) h
same,AUC,"[6]; in vivo, 100 mg, DLM + EFV (efavirenz 600 mg once daily for 10 days), delamanid 100 mg twice daily, day 17 evening dose, mean ± SD",4240 ng·h/mL
same,AUC,"[6]; in vivo, 100 mg, DLM alone, delamanid 100 mg twice daily, day 7 evening dose, mean ± SD",4380 ng·h/mL
same,Cmax,"[6]; in vivo, 100 mg, Delamanid Cmax, DLM + EFV (efavirenz 600 mg once daily for 10 days), delamanid 100 mg twice daily, day 17 evening dose",394 ng/mL
same,Cmax,"[6]; in vivo, 100 mg, Delamanid Cmax, DLM alone, delamanid 100 mg twice daily, day 7 evening dose",391 ng/mL
same,Effects on CYP activities,CYP enzymes; in vitro,neither stimulatory nor inhibitory effects
same,Metabolism by CYP enzymes,"CYP enzymes; incubation of delamanid with liver microsomes, metabolites minimally quantifiable",not metabolized by CYP enzymes
same,Improvement of 2-month sputum culture conversion,"MDR-TB; MDR-TB patients, delamanid + optimized background regimen for 2 months compared to placebo + optimized background regimen",approximately 50%
same,Favorable treatment outcomes,MDR-TB; [14],55%
same,Mortality,MDR-TB; [14],12.0%
same,Favorable treatment outcomes,"MDR-TB; delamanid plus optimized background regimen for ≥6 months, P < 0.001",74.5%
same,Mortality,"MDR-TB; delamanid plus optimized background regimen for ≥6 months, P = 0.001",2.9%
NNC(=O)c1ccncc1 [Isoniazid],Isoniazid concentrations in slow acetylators versus intermediate/rapid acetylators (NAT2 genotype),[3],~2 fold
same,AUC,[3]; [12],12100 ± 6900 ng·h/mL
same,Cmax,[3]; [12],4620 ± 980 ng/mL
same,AUC,"clinical [4]; AUCτ of coadministered drug, without DLM, Study 1, ethambutol 1100 mg + Rifater once daily, day 15, without delamanid, mean ± SD",20000 ± 8000 ng·h/mL
Cc1cccc(C)c1OCC(=O)N[C@@H](Cc1ccccc1)[C@@H](O)C[C@H](Cc1ccccc1)NC(=O)[C@H](C(C)C)N1CCCNC1=O [Lopinavir],Effect of delamanid on exposure of coadministered drug,[2],not affected
same,Equivalence outcome for steady-state exposure of coadministered drug,[2],equivalence was documented
same,"Cmax of coadministered drug, without DLM","[2]; tenofovir 300 mg once daily or lopinavir 400 mg/ritonavir 100 mg twice daily, day 14, without delamanid, mean ± SD",12.9 ± 3.17 (11) μg/ml
C[C@H](Cn1cnc2c(N)ncnc21)OCP(=O)(O)O [Tenofovir],Cmax,clinical [1]; [11],294 ng/mL
same,Effect of delamanid on exposure of coadministered drug,[2],not affected
same,Equivalence outcome for steady-state exposure of coadministered drug,[2],suggested
same,"AUCτ of coadministered drug, with DLM","[2]; tenofovir 300 mg once daily or lopinavir 400 mg/ritonavir 100 mg twice daily, day 14, with delamanid 100 mg twice daily, mean ± SD",2.850 ± 0.644 (13) h·µg/ml
CO[C@H]1/C=C/O[C@@]2(C)Oc3c(C)c(O)c4c(O)c(c(/C=N/N5CCN(C)CC5)c(O)c4c3C2=O)NC(=O)/C(C)=C\C=C\[C@H](C)[C@H](O)[C@@H](C)[C@@H](O)[C@@H](C)[C@H](OC(C)=O)[C@@H]1C [Rifampin],AUC,"clinical [4]; AUCτ of coadministered drug, with DLM",55900 ng·h/mL
same,AUC,"clinical [4]; AUCτ of coadministered drug, without DLM",48200 ng·h/mL
same,Cmax,clinical [4]; [11],13200 ng/mL
CC[C@@H](CO)NCCN[C@@H](CC)CO [Ethambutol],Higher AUCτ with delamanid coadministration,[3]; [15],approximately 25%
same,Higher Cmax with delamanid coadministration,[3]; [15],approximately 25%
same,AUC,[3]; [12],22400 ± 4770 ng·h/mL
same,AUC,[3]; [13],18200 ± 3210 ng·h/mL
same,Cmax,[3]; [12],4450 ± 820 ng/mL
